Laboratory results as given in the CheMixHub viscosity set.
Several values for one entry are separate records, joined by “and”; a condition that tells them apart may be missing. Equal values may be shown once.

Experiment: xn = mol fraction of the nth substance listed

COC(C)=O + CCCO
viscosity [mPa·s]
Details | 298.15 K | 313.15 K
101 kPa, x1 = 0.0464 | 1.587 | 1.153
101 kPa, x1 = 0.0999 | 1.295 | 0.965
101 kPa, x1 = 0.1992 | 1.001 | 0.769
101 kPa, x1 = 0.3035 | 0.794 | 0.626
101 kPa, x1 = 0.4028 | 0.654 | 0.529
101 kPa, x1 = 0.5088 | 0.555 | 0.458
101 kPa, x1 = 0.5545 | 0.52 | 0.433
101 kPa, x1 = 0.6022 | 0.49 | 0.411
101 kPa, x1 = 0.7037 | 0.439 | 0.375
101 kPa, x1 = 0.7973 | 0.401 | 0.346
101 kPa, x1 = 0.8988 | 0.39 | 0.341
101 kPa, x1 = 0.9458 | 0.379 | 0.332
101 kPa, x2 = 0.1056 | 0.375 | –
101 kPa, x2 = 0.1987 | 0.399 | –
101 kPa, x2 = 0.298 | 0.432 | –
101 kPa, x2 = 0.3999 | 0.483 | –
101 kPa, x2 = 0.5012 | 0.55 | –
101 kPa, x2 = 0.5963 | 0.644 | –
101 kPa, x2 = 0.6991 | 0.793 | –
101 kPa, x2 = 0.7989 | 1.014 | –
101 kPa, x2 = 0.8845 | 1.306 | –
101.33 kPa, x1 = 0.0504 | 1.667 | –
101.33 kPa, x1 = 0.1935 | 1.074 | –
101.33 kPa, x1 = 0.3023 | 0.817 | –
101.33 kPa, x1 = 0.4167 | 0.654 | –
101.33 kPa, x1 = 0.5497 | 0.544 | –
101.33 kPa, x1 = 0.6021 | 0.509 | –
101.33 kPa, x1 = 0.6703 | 0.48 | –
101.33 kPa, x1 = 0.7809 | 0.439 | –
101.33 kPa, x1 = 0.8648 | 0.409 | –

COCCOC + CCCO
viscosity [mPa·s]
Details | 298.15 K | 308.15 K
101 kPa, x1 = 0.0072 | 1.874 | 1.467
101 kPa, x1 = 0.01 | 1.864 | 1.448
101 kPa, x1 = 0.0347 | 1.697 | 1.336
101 kPa, x1 = 0.0524 | 1.598 | 1.274
101 kPa, x1 = 0.06899 | 1.588 | –
101 kPa, x1 = 0.0834 | 1.443 | 1.16
101 kPa, x1 = 0.1171 | 1.304 | 1.055
101 kPa, x1 = 0.1378 | 1.223 | 1.008
101 kPa, x1 = 0.1429 | 1.264 | –
101 kPa, x1 = 0.1976 | 1.05 | 0.902
101 kPa, x1 = 0.2223 | 1.056 | –
101 kPa, x1 = 0.2436 | 0.946 | 0.816
101 kPa, x1 = 0.2925 | 0.879 | 0.741
101 kPa, x1 = 0.3078 | 0.8591 | –
101 kPa, x1 = 0.3507 | 0.807 | 0.682
101 kPa, x1 = 0.4001 | 0.7303 | –
101 kPa, x1 = 0.4082 | 0.747 | 0.645
101 kPa, x1 = 0.4355 | 0.695 | 0.622
101 kPa, x1 = 0.4665 | 0.684 | 0.601
101 kPa, x1 = 0.5001 | 0.6269 | –
101 kPa, x1 = 0.5064 | 0.635 | 0.579
101 kPa, x1 = 0.5539 | 0.604 | 0.557
101 kPa, x1 = 0.605 | 0.573 | 0.533
101 kPa, x1 = 0.6088 | 0.5528 | –
101 kPa, x1 = 0.6728 | 0.54 | 0.508
101 kPa, x1 = 0.7247 | 0.519 | 0.495
101 kPa, x1 = 0.7273 | 0.4945 | –
101 kPa, x1 = 0.7669 | 0.503 | 0.483
101 kPa, x1 = 0.8206 | 0.488 | 0.475
101 kPa, x1 = 0.8572 | 0.4482 | –
101 kPa, x1 = 0.8747 | 0.473 | 0.479
101 kPa, x1 = 0.9605 | 0.461 | 0.45
101 kPa, x2 = 0.0061 | 0.452 | 0.448
101.33 kPa, x1 = 0.0095 | 1.881 | –
101.33 kPa, x1 = 0.0215 | 1.798 | –
101.33 kPa, x1 = 0.0405 | 1.678 | –
101.33 kPa, x1 = 0.0628 | 1.552 | –
101.33 kPa, x1 = 0.0941 | 1.397 | –
101.33 kPa, x1 = 0.1096 | 1.329 | –
101.33 kPa, x1 = 0.1355 | 1.228 | –
101.33 kPa, x1 = 0.1741 | 1.109 | –
101.33 kPa, x1 = 0.2034 | 1.024 | –
101.33 kPa, x1 = 0.2436 | 0.942 | –
101.33 kPa, x1 = 0.2926 | 0.842 | –
101.33 kPa, x1 = 0.3474 | 0.764 | –
101.33 kPa, x1 = 0.3848 | 0.722 | –
101.33 kPa, x1 = 0.4255 | 0.678 | –
101.33 kPa, x1 = 0.4764 | 0.636 | –
101.33 kPa, x1 = 0.5241 | 0.6 | –
101.33 kPa, x1 = 0.57 | 0.572 | –
101.33 kPa, x1 = 0.6239 | 0.536 | –
101.33 kPa, x1 = 0.6795 | 0.509 | –
101.33 kPa, x1 = 0.7142 | 0.495 | –
101.33 kPa, x1 = 0.7632 | 0.476 | –
101.33 kPa, x1 = 0.8198 | 0.459 | –
101.33 kPa, x1 = 0.8625 | 0.447 | –
101.33 kPa, x1 = 0.9004 | 0.439 | –
101.33 kPa, x1 = 0.9269 | 0.435 | –
101.33 kPa, x1 = 0.959 | 0.427 | –
101.33 kPa, x2 = 0.0158 | 0.424 | –

O=C(O)c1ccccc1 + CCCO
viscosity
Details | 298.15 K | 303.15 K | 308.15 K | 313.15 K | 318.15 K
101 kPa, x1 = 0.164 | – | 2.531 mPa·s | – | – | 1.77 mPa·s
101 kPa, x1 = 0.1645 | 2.892 mPa·s | 2.531 mPa·s | 2.243 mPa·s | 1.988 mPa·s | 1.77 mPa·s
101 kPa, x1 = 0.178 | – | 2.603 mPa·s | – | – | 1.816 mPa·s
101 kPa, x1 = 0.197 | – | 2.724 mPa·s | – | – | 1.881 mPa·s
101 kPa, x1 = 0.216 | – | 2.844 mPa·s and 2.844 mPa·s | 2.498 mPa·s | 2.206 mPa·s | 1.965 mPa·s and 1.965 mPa·s
101.33 kPa, x1 = 0.1645 | – | 2.531 mPa·s | – | – | 1.77 mPa·s
101.33 kPa, x1 = 0.178 | – | 2.603 mPa·s | – | – | 1.816 mPa·s
101.33 kPa, x1 = 0.1975 | – | 2.734 mPa·s | – | – | 1.881 mPa·s
101.33 kPa, x1 = 0.2 | 2.892 mPa·s | 2.531 mPa·s and 2.531 mPa·s | 2.243 mPa·s and 2.243 mPa·s | 1.988 mPa·s and 1.988 mPa·s | 1.77 mPa·s and 1.77 mPa·s
101.33 kPa, x1 = 0.216 | – | 2.844 mPa·s | – | – | 1.965 mPa·s
101.33 kPa, x1 = 0.22 | – | 2.844 mPa·s and 2.844 mPa·s | 2.498 mPa·s and 2.498 mPa·s | 2.206 mPa·s and 2.206 mPa·s | 1.965 mPa·s and 1.965 mPa·s
